Experimental data from article PMC10917278, “Structural insights into the modulation Of SOD1 aggregation By a fungal metabolite Phialomustin-B: Therapeutic potential in ALS” (PLOS ONE, 2024).
Entries after “also recorded” stand apart in the source; their conditions may differ.

Biological target: T1, SOD1^A123F (Homo sapiens, UniProt P00441, A124F)
T1 construct: His-tag (cleaved yes); made in house; host or cells: E. coli BL21-DE3
Test: MST binding assay, site-specific mutant SOD1^A123F
Conditions: PBS buffer, mutant 25 nM, PB 30.5 nM to 250 μM, 25 °C
Procedure: To further validate the binding of PB to SOD1, site-directed mutagenesis was performed for the interacting residues at the binding sites of PB. The point mutations generated on the SOD1 protein are K9F, G10P, L42R, and A123F. The MST assay was carried out on these mutants against PB (Fig 5). The dose-response curve with the highest signal-to-noise ratio, high response amplitude, and lowest error rate was selected for measuring the binding affinity (Kd) value. […] Binding at the electrostatic loop is affected majorly by mutating residues at A123 to phenylalanine and L42 to arginine. […] Taken together, the binding affinities of these mutants confirm the ligand bindings at these sites of SOD1 are specific.
Fig 5 MST interaction analysis of fluorescently labeled SOD1 mutants against PB. The binding of PB to fluorescently Cys-labeled SOD1- variants is quantified in PBS buffer. The concentration of PB varied from 30.5 nM to 250 μM, while the respective mutants were kept constant at 25 nM. MST experiments were conducted at 20% LED excitation and medium MST power at 25 °C. […] Error bars indicate the standard error of the mean, SEM (n = 3). […] The ligand PB is printed only in the titles of panels a-d, so the mutant names are used as the substance labels.
Binding studies were performed for SOD1^WT and the ligands using microscale thermophoresis (MST). […]

T1 sequence (P00441 whole entry A124F): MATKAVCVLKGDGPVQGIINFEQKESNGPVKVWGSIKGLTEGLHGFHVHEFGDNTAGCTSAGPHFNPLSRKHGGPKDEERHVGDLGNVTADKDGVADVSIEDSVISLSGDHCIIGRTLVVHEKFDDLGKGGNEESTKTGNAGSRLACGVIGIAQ

For `CCCC[C@H](C)/C=C(C)/C=C/C(=O)O` [PB, (S, 2E, 4E)-4,6-dimethyldeca-2,4-dienoic acid], which “binding affinity Kd” value is on record?
Its value is “very weak binding; also recorded: weak-binding”.
